According to PMC12227055 (Science Advances, 2025):

Assays:
[1] = target: CryoRhodopsin 2 (CryoR2) from Subtercola sp. AK-R2A1-2 (Subtercola sp. AK-R2A1-2); experiment: crystal structure
[2] = target: CryoRhodopsin 2 (CryoR2) from Subtercola sp. AK-R2A1-2 (Subtercola sp. AK-R2A1-2); experiment: cryo-EM structure
[3] = target: T1, CryoR1 (Cryobacterium levicorallinum, UniProt A0A1I3DJQ0); experiment: cryo-EM structure (light-accumulated M2 state), […] A; format: binding; conditions: covalent deprotonated Schiff base (K241); photoproduct formed in situ from all-trans-retinal; pH 10.5; 530/532 nm illumination
T1 construct: gene E3O11_09160
T1 sequence (A0A1I3DJQ0 3-327): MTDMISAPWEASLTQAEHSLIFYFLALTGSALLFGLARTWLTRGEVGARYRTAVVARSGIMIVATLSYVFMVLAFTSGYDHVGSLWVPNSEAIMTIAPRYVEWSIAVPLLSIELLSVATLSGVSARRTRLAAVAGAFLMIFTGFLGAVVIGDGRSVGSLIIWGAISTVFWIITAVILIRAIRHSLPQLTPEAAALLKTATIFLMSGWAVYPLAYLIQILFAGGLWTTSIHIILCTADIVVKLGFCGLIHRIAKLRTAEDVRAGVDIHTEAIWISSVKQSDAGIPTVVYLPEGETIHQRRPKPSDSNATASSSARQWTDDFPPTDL

[4] = target: T2, CryoR1 (Cryobacterium levicorallinum, UniProt A0A1I3DJQ0, R59T); experiment: UV-Vis absorption and flash photolysis of purified holoprotein; format: binding; conditions: covalent Schiff base (K241); detergent; pH 8.0 and 10.5
T2 construct: gene E3O11_09160

[5] = target: T3, CryoR3 (Cryobacterium frigoriphilum, UniProt A0A4R8ZY77); experiment: as above; format: binding; conditions: covalent Schiff base; detergent; pH 8.0
T3 construct: gene E3T55_12175
T3 sequence (A0A4R8ZY77 42-365): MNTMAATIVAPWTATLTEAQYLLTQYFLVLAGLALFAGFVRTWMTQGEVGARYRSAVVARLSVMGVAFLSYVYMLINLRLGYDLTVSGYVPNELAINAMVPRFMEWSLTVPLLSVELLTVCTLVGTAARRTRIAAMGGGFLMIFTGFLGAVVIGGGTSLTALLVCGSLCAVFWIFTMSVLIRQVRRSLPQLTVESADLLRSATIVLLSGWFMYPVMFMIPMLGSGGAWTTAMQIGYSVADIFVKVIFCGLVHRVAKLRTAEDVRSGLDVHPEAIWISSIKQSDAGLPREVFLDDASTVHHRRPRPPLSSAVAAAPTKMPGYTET

[6] = target: T4, CryoR4 (Subtercola vilae, UniProt A0A4T2CD69); experiment: as above; format: binding; conditions: covalent Schiff base; detergent; pH 8.0
T4 construct: gene D4765_01930
T4 sequence (A0A4T2CD69 1-317): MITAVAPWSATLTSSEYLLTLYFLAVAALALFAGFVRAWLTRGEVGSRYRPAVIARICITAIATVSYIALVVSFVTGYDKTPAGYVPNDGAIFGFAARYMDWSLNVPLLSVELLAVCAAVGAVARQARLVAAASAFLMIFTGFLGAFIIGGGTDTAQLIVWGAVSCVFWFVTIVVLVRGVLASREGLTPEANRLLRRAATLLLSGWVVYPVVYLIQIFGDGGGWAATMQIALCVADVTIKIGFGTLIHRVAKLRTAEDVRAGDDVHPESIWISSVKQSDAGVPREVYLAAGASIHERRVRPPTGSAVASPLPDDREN

[7] = target: T5, CryoR1_1–263 (Cryobacterium levicorallinum, UniProt A0A1I3DJQ0); experiment: as above; format: binding; conditions: covalent Schiff base; detergent; pH 8.0
T5 construct: gene E3O11_09160
T5 sequence (A0A1I3DJQ0 3-265): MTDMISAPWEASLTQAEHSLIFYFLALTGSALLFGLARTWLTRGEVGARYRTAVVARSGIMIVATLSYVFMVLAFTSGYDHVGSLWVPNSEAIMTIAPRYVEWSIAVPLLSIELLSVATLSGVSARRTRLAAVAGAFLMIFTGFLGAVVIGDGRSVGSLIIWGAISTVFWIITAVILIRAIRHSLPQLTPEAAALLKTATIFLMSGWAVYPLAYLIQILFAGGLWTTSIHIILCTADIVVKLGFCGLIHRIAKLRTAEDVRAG

[8] = target: T1, CryoR1; experiment: cryo-EM structure (ground state); format: binding; conditions: covalent Schiff base (K241); pH 4.3, 8.0 and 10.5; detergent micelles or nanodisc
[9] = target: T6, CryoR5 (Subtercola boreus, UniProt A0A3E0VLV3); experiment: UV-Vis absorption and flash photolysis of purified holoprotein; format: binding; conditions: covalent Schiff base; detergent; pH 8.0
T6 construct: gene B7R54_12135
T6 sequence (A0A3E0VLV3 1-318): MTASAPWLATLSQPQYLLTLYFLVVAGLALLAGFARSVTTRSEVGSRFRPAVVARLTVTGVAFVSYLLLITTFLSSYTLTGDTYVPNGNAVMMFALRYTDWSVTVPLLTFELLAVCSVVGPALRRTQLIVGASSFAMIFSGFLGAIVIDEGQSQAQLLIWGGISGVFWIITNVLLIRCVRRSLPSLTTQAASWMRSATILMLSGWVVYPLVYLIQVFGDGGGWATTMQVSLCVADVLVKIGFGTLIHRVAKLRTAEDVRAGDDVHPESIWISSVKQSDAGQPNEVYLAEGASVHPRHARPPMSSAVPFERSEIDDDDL

[10] = target: CryoRhodopsin 1 (CryoR1) from Cryobacterium levicorallinum, wild type (Cryobacterium levicorallinum); experiment: SEC
[11] = target: CryoRhodopsin 1 (CryoR1) from Cryobacterium levicorallinum, wild type (Cryobacterium levicorallinum); experiment: cryo-EM structure
[12] = target: CryoRhodopsin 1 (CryoR1) from Cryobacterium levicorallinum, wild type (Cryobacterium levicorallinum); experiment: cryo-EM structure; remark: listed apart in the source

T2 sequence (A0A1I3DJQ0 entry or part of it R59T): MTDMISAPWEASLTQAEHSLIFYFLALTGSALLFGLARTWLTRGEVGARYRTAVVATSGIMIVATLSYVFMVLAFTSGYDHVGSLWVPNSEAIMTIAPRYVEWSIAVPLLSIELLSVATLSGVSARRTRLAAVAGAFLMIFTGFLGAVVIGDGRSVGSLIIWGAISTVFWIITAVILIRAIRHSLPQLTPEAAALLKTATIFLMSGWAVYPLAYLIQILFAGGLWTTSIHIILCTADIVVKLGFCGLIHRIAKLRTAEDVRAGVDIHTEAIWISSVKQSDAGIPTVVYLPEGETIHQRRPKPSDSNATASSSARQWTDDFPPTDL

“CryoRhodopsin 2 (CryoR2) from Subtercola sp. AK-R2A1-2 (natural protein)” gave a stoichiometry N [1] of 5 and a stoichiometry N [2] of 5.
For `CC1=C(/C=C/C(C)=C/C=C/C(C)=C\C=O)C(C)(C)CCC1` [13-cis retinal], the “cryo-EM structure (light-accumulated M2 state), 2.3 A” value [3] was “strongly suggests the 13-cis conformation of the cofactor in the M2 state”.
With `CC1=C(/C=C/C(C)=C/C=C/C(C)=C/C=O)C(C)(C)CCC1` [all-trans-retinal] the “UV-Vis absorption and flash photolysis of purified holoprotein” value (“UV-Vis absorption and flash photolysis” for short) [4] was “we studied the spectroscopic properties of the R57T mutant of CryoR1”, the “UV-Vis absorption and flash photolysis” value [5] was “CryoR1-5 differ in their UV–visible (Vis) absorption spectra” and the “UV-Vis absorption and flash photolysis” value [6] was “CryoR1-5 differ in their UV–visible (Vis) absorption spectra”. For the same compound, the “UV-Vis absorption and flash photolysis” value [7] was “spectral properties of the truncated variant of CryoR1”, the “cryo-EM structure (ground state)” value [8] was “presence of a single state, which we assigned to the ground state” and the “UV-Vis absorption and flash photolysis” value [9] was “CryoR1-5 differ in their UV–visible (Vis) absorption spectra”.
In the case of “CryoRhodopsin 1 (CryoR1) from Cryobacterium levicorallinum, wild type (natural protein)”, the stoichiometry N [10] is reported as 5, the stoichiometry N [11] is reported as 5 and the stoichiometry N [12] is reported as 5.
